Reference: patent US20220054561A1, “LACHNOSPIRACEAE MITIGATES AGAINST RADIATION-INDUCED HEMATOPOIETIC/GASTROINTESTINAL INJURY AND DEATH, AND PROMOTES CANCER CONTROL BY RADIATION” (priority 2018, published 2022)

Experiments:
Type in all cases: in vivo, mouse
SPF C57BL/6 mice [1] = test: Butyrate contained water for 8 weeks followed by total body irradiation; conditions: butyrate water 8 weeks, TBI; control recipients 43%
Protocol: Butyrate production was determined by Mass Spectrometry from Non-TBI controls versus LL-TBI survivors (FIG. 7A), Control Recipients versus Survivor Recipients from dirty cage sharing expt. as shown in FIG. 2A (FIG. 7B), Control Recipients versus Survivor Recipients from FMT in GF mice expt. as shown in FIG. 4A (FIG. 7C). FIG. 7D includes a schematic of butyrate treatment of 6-8 weeks SPF C57BL/6 mice. After 8 weeks of butyrate treatment, recipients received total body irradiation. Survival rates (FIG. 7E), clinical scores (FIG. 7F), body weight changes (FIG. 7G) and body temperatures (FIG. 7H) were monitored for 30 days post TBI. (Control Recipients, n=14; Butyrate Recipients, n=16).
It is well established that Clostridiales and Lachnospiraceae bacterial groups produce short chain fatty acids (SCFAs) via fermentation of dietary polysaccharides^32-34. SCFAs especially butyrate, which is the most commonly studied SCFA, are important substrates for maintaining intestinal epithelium and play a role in regulating immune system and inflammatory response. Increased abundance of Lachnospiraceae is expected to enhance the capability to produce SCFAs. To validate this hypothesis, the concentrations of lactate, propionate, isobutyrate and butyrate were detected in each individual Lachnospiraceae strain within the disclosed 23 stains pool. […]

SPF mice = test: Tryptophan metabolites treatment and lethal radiation; conditions: lethal radiation, monitored 30 days
Protocol: Metabolite profiles were measured in fecal samples of AM-Ctrl and ES mice at Day 290 post TBI. Total ion chromatogram (TIC) metabolomic cloudplot (p<0.01) (FIG. 14A) and PCA score plot (14B) show distinct metabolites separation between these two groups. […] In FIG. 14D, metabolic network graphs (MetaMapp) were generated to integrate the biochemical pathways and chemical relationships of all detected metabolites. Identified metabolites are represented by circle nodes, with lower transparency indicating lower p-values from Welch's t-test. Lighter grey nodes denote metabolites with higher abundance in ES group; darker grey nodes denote those higher in AM-Ctrl group. Solid grey lines connecting distinct metabolites symbolize KEGG reactant pair links; dashed grey lines symbolize chemical similarity with a Tanimoto coefficient score >0.7. Tryptophan metabolites are highlighted by a large shadow (labelled), while other metabolite families are distinguished by separate shadowed areas. FIG. 14E is a schematic of tryptophan metabolites treatment. Survival rates (FIG. 14F) and clinical scores (FIG. 14G) were monitored for 30 days. Error bars show SEM, *p<0.05, **p<0.01, ***p<0.001 determined by log-rank (Mantel Cox) test (FIG. 14F) and Mann-Whitney test for area under the curve (AUC) (FIG. 14G). […]

SPF C57BL/6 mice [2] = test: Acetate, butyrate or propionate supplemented water for 8 weeks followed by lethal dose TBI
From the text: FIG. 11A is a schematic of short chain fatty acids (SCFAs) treatment. Survival rates (FIG. 11B) and clinical scores (FIG. 11C) were monitored for 30 days. Femurs and spleens were stained for H&E and quantified for BM cellularity and spleen EMH scores (FIG. 11D). White pulp (WP, black dash circles), red pulp (RP, area between black solid lines), and megakaryocytes (black arrows) are shown. […] Total CMP, GMP and MEP percentages of Lin^− cells are shown in the right histogram. Representative images are shown. Mucus layer is indicated by area between dash lines and crypt length is indicated by double-headed arrow. Mucus layer thickness and crypt length were quantified. Error bars show SEM, *p<0.05, **p<0.01, *** p<0.001 determined by log-rank (Mantel Cox) test (B), Mann-Whitney test for area under the curve (AUC) (C) and Student's t test (D, E, F).
SPF C57BL/6 mice were treated with acetate, butyrate or propionate supplemented water for 8 weeks respectively, followed by a lethal dose TBI (FIG. 11A). […] To examine the effect of propionate on the gastrointestinal system, Alcian blue and periodic acid-Schiff (AB/PAS) staining of all intracellular mucin glycoproteins within goblet cells was completed.

For `CCCC(=O)O` [butyrate], the thirty-day survival rate (SPF C57BL/6 mice [1]) was 68%.

In the case of `O=Cc1c[nH]c2ccccc12` [I3A, indole-3-carboxaldehyde], the survival rates (SPF mice) is reported as “around 75%”.

`CCC(=O)O` [propionate] was tested, and the bone marrow cellularity (SPF C57BL/6 mice [2]; H&E femurs) was “Elevated bone marrow cellularity”, the “mucus thickness and crypt length” value (SPF C57BL/6 mice [2]; colon AB/PAS staining, versus control) was “significantly increased” and the “total Sca1−cKit+ progenitor cells (GMP, CMP, MEP) in BM” value (SPF C57BL/6 mice [2]; flow cytometry, versus control recipients) was “significant increase”. For the same compound, the Thirty-day survival rates (SPF C57BL/6 mice [2]; supplemented water 8 weeks, lethal dose TBI, control group 28%) was 79% and the clinical scores (SPF C57BL/6 mice [2]; versus control group) was “lower clinical scores”.

With `O=C(O)c1cc(=O)c2ccccc2[nH]1` [KYNA, kynurenic acid] the survival rates (SPF mice) was “around 75%”.

For `CC(=O)O` [acetate], the “protection (survival, clinical scores)” value (SPF C57BL/6 mice [2]; supplemented water 8 weeks, lethal dose TBI) was “slight protection”.
